From ChEMBL document CHEMBL1158696, “Bioactive asterosaponins from the starfish Culcita novaeguineae” (J Nat Prod, 2005)

Columns and labels:
[1] = tested on: Bel-7402; test: Cytotoxicity against human Bel7402 cells after 72 hrs by SRB assay; assay type: functional, cell-based; details: Bel-7402, 72 h
[2] = tested on: K562; test: Cytotoxicity against human K562 cells after 72 hrs by MTT assay; assay type: functional, cell-based; details: K562, 72 h

Row | Compound | IC50 [1] | IC50 [2]
1 | CC(C)[C@H](C)[C@@H]1O[C@H]1[C@](C)(O)[C@H]1CC[C@H]2[C@@H]3C[C@H](O[C@@H]4O[C@H](CO)[C@@H](O)[C@H](O[C@@H]5O[C@H](C)[C@@H](O[C@@H]6O[C@H](C)[C@H](O)[C@H](O)[C@H]6O[C@@H]6O[C@H](C)[C@H](O)[C@H](O)[C@H]6O)[C@H](O)[C@H]5O[C@@H]5O[C@H](C)[C@H](O)[C@H](O)[C@H]5O)[C@H]4O)[C@H]4C[C@@H](OS(=O)(=O)[O-])CC[C@]4(C)C3=CC[C@]12C.[Na+] [NOVAEGUINOSIDE I] | 9.2 µg/mL | 8.6 µg/mL
2 | CC(C)CC(=O)C[C@](C)(O)[C@H]1CC[C@H]2[C@@H]3C[C@H](O[C@@H]4O[C@H](C)[C@@H](O)[C@H](O[C@@H]5OC[C@@H](O[C@@H]6O[C@H](C)[C@H](O)[C@H](O)[C@H]6O[C@@H]6O[C@H](C)[C@H](O)[C@H](O)[C@H]6O)[C@H](O)[C@H]5O[C@@H]5O[C@H](C)[C@H](O)[C@H](O)[C@H]5O)[C@H]4O)[C@H]4C[C@@H](OS(=O)(=O)[O-])CC[C@]4(C)C3=CC[C@@]21C.[Na+] [regularoside B] | 14.5 µg/mL | 17.4 µg/mL
3 | CC(C)[C@H](C)[C@@H]1O[C@H]1[C@](C)(O)[C@H]1CC[C@H]2[C@@H]3C[C@H](O[C@@H]4O[C@H](CO)[C@@H](O)[C@H](O[C@@H]5O[C@H](C)[C@@H](O[C@@H]6OC[C@H](O)[C@H](O)[C@H]6O[C@@H]6O[C@H](C)[C@H](O)[C@H](O)[C@H]6O)[C@H](O)[C@H]5O[C@@H]5O[C@H](C)[C@H](O)[C@H](O)[C@H]5O)[C@H]4O)[C@H]4C[C@@H](OS(=O)(=O)[O-])CC[C@]4(C)C3=CC[C@]12C.[Na+] [NOVAEGUINOSIDE II] | 4.1 µg/mL | 4.9 µg/mL
